Measured values reported in patent EP3318253B1, “COMPOSITIONS COMPRISING WNT INHIBITORS FOR TREATING CANCER” (Schmidt-Wolf, Ingo, priority 2010, dated 2012).

Columns and labels:
[1] = system: primary myeloma cells derived from bone marrow from patients with multiple myeloma; test: Viability of myeloma primary cells from bone marrow; type: cell-based, human; details: incubated three days; preliminary data
Procedure: Bone marrow samples from patients with myeloma were taken after informed consent, single cell suspensions generated and cells ficolled. Cells were incubated with or without EA for three days and measured for viability.
(§1) • Figure 1. […] Data are shown as mean ± SD. • Figure 2. […] Data are shown as mean ± SD. • Figure 3. […] (A) Flow cytometric results. […] Finally, ECL reagent was utilized for detection. • Figure 4C. […] Finally, ECL reagent was utilized for detection. • Figure 5. Effect of EA on viability of myeloma primary cells. […] Results represent data from two separate experiments. Data are shown as mean. • Figure 6. […] (A) Tumor growth and (B) overall survival were measured. Six animals were assayed per group.
Bone marrow samples from patients with myeloma were taken after informed consent, single cell suspensions generated and cells ficolled. Cells were incubated with or without CIC for three days and measured for viability.
Bone marrow samples from patients with myeloma were taken after informed consent, single cell suspensions generated and cells ficolled. Cells were incubated with or without GF for three days and measured for viability.

[2] = system: β-catenin; test: Western blot, β-catenin expression in RPMI 8226 cells; type: cell-based, human; details: RPMI 8226 cells treated for 24h
Procedure: (§2) Western blot was performed as described recently^16.
as §1
(§3) Western blot was performed as described recently.
(§4) • Figure 7. […] Data are shown as mean ± SD. • Figure 8. […] Data are shown as mean ± SD. • Figure 9. Effect of CIC on the Wnt/beta catenin pathway. (A) Flow cytometric results. […] Finally, ECL reagent was utilized for detection. • Figure 10C. […] Finally, ECL reagent was utilized for detection. • Figure 11. […] (A) Tumor growth and (B) overall survival were measured. Six animals were assayed per group. HD CIC.

[3] = system: PBL; test: Cell viability by DiOC6 staining, flow cytometry (normal control cells); details: Homo sapiens, PBL, 72 h
Procedure: Peripheral blood mononuclear cells (PBMC) and PBL were isolated from blood samples of healthy volunteers by Ficoll density gradient centrifugation (Lymphoprep, Nycomed, Oslo, Norway).
1x10^5 Cells were cultured in 3 ml Medium in 6-well plates. […] The apoptosis assay was performed with 3'3-dihexyloxacarbocyanine iodide (DiOC6) detecting mitochondrial membrane potential in viable cells, and propidium iodide (PI) which binds to DNA in necrotic cells, measured by a fluorescence-activated cell sorter (FACS).
For FACS analysis, 500µl staining solution containing 80 nM DiOC6 in FACS buffer, consisting of deficient RPMI-medium with 0.5% bovine serum albumin (BSA), was mixed with equal volumes of the cell sample in a glass tube and incubated at 37°C for 15 min. After a washing step with PBS/BSA 1% the cells were re-suspended in 500µl PBS/BSA 1%. After addition of 5µl PI-solution (100µg/ml) the cells were analyzed by FACS. Using this assay, viable cells reveal high fluorescence intensity for DiOC6 and a low expression for PI. In contrary, apoptotic cells show a low expression for DiOC6 and also a low expression for PI (2). Finally, necrotic cells show a low expression for DiOC6 and a high expression for PI.
PBMC and PBL derived from healthy individuals were used as normal controls. 1x10^5 cells were cultured with each compound using various concentrations for three days. Then cell viability was measured by DIOC6 staining by flow cytometry. Results represent data from two to four separate experiments each.
PBMC and PBL derived from healthy individuals were used as normal controls. 1x10^5 cells were cultured with each compound using various concentrations for three days. Then cell viability was measured by DIOC6 staining by flow cytometry. Results represent data from 2 to 4 separate experiments each.
1x10^5 Cells were cultured in 3 ml Medium in 6-well plates. […] The apoptosis assay was performed with 3' 3-dihexyloxacarbocyanine iodide (DiOC6) detecting mitochondrial membrane potential in viable cells, and propidium iodide (PI) which binds to DNA in necrotic cells, measured by a fluorescence-activated cell sorter (FACS).
PBL derived from healthy individuals were used as controls. 1x10^5 cells were cultured with each compound using various concentrations for three days. Then cell viability was measured by DIOC6 staining by flow cytometry and IC 50 rates were determined. Results represent data from 2 to 4 separate experiments each.
PBMC and PBL derived from healthy individuals were used as controls. 1x10^5 cells were cultured with each compound using various concentrations for three days.

[4] = system: OPM-2, U266 and RPMI 8226 cells; test: Cell viability by DiOC6 staining in myeloma cell lines (mean IC50, combinations); type: cell-based, human; details: Homo sapiens; mean of the IC50 results in OPM-2, U266 and RPMI 8226 cells
Procedure: A mean IC50 value in myeloma cells was determined using the mean of the IC50 results determined in OPM-2, U266 and RPMI 8226 cells.
as §1
Experiments were performed as reported recently. […]

[5] = system: Wnt/β-catenin target genes, including LEF-1, cyclin D1 and fibronectin; details: CLL cells exposed to EA; cited from earlier work
[6] = system: beta catenin; test: Western blot, Wnt/beta catenin pathway in lymphoma cells; type: cell-based, human
Procedure: as §2, §1, §3, §4

[7] = target: LEF-1 protein (Homo sapiens, UniProt Q9UJU2); details: immune co-precipitation; destabilizes the LEF-1/β-catenin complex; cited from earlier work
[8] = system: U266; test: Cell viability by DiOC6 staining, flow cytometry; type: cell-based; details: Homo sapiens, U-266, 72 h, 1x10^5 cells cultured three days, various concentrations
Procedure: (§5) Experiments were performed as reported recently.
(§6) PBL derived from healthy individuals were used as controls. […] ND, not done.

[9] = system: RPMI 8226; test: Cell viability by DiOC6 staining, flow cytometry; type: cell-based; details: Homo sapiens, 72 h, 1x10^5 cells cultured three days, various concentrations
Procedure: as §5, §6

[10] = system: Raji; test: Cell viability by DiOC6 staining, flow cytometry; type: cell-based; details: Homo sapiens
Procedure: as §5, §6

[11] = system: OCI-Ly8 LAM53; test: Cell viability by DiOC6 staining, flow cytometry; type: cell-based; details: Homo sapiens
Procedure: as §5, §6

[12] = system: SU-DHL 4; test: Cell viability by DiOC6 staining, flow cytometry; type: cell-based; details: Homo sapiens
Procedure: as §5, §6

[13] = system: PBMC; test: Cell viability by DiOC6 staining, flow cytometry (normal control cells); type: cell-based, human
Procedure: (§7) PBMCs were isolated from blood of healthy donors by Ficoll-Hypaque density gradient centrifugation. Blood from buffy coats was mixed 1:2 with PBS/1% BSA (both PAA, Cölbe, Germany) and used for a ficoll gradient (LymphoPrep, PAA, Cölbe, Germany). After the centrifugation at 800 g for 30 minutes, the leukocyte layer was removed and transferred to new tubes. Subsequently, these cells were washed 3 times with PBS/1%BSA and re-suspended in fresh medium, consisting of RPMI medium (PAA, Cölbe, Germany) with 10% fetal calf serum (Invitrogen, Karlsruhe, Germany), 2.5% hepes buffer solution (PAA, Cölbe, Germany), and 1% penicillin/streptomycin (PAA, Cölbe, Germany).
as §5

[14] = as above; type: cell-based, human; details: human; control of PBMC; after 72 h; read-out: relative viability
Procedure: as §7, §5

[15] = system: OPM-2 myeloma cells; test: Cell viability by DiOC6 staining, flow cytometry; type: cell-based, human; details: Homo sapiens, 72 h; OPM-2; 1x10^5 cells cultured three days, various concentrations
Procedure: as §5, §6

Sequence of LEF-1 protein (Q9UJU2 whole entry): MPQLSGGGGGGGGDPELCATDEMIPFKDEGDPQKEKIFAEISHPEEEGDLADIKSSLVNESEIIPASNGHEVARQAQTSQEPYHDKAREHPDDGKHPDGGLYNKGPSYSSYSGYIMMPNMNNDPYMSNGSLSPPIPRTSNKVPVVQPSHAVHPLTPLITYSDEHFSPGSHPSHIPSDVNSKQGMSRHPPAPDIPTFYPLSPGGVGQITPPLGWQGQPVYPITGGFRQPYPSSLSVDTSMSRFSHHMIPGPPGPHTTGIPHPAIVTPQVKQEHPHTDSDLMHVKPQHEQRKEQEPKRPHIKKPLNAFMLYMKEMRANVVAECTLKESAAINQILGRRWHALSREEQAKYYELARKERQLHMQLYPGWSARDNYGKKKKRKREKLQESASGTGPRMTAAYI

Row | Compound | growth of primary myeloma cells [1] | β-catenin expression [2] | IC50 [3] | IC50 [4] | beta catenin expression in lymphoma cells [6] | IC50 [8] | IC50 [9] | IC50 [15] | also measured
1 | C=C(CC)C(=O)c1ccc(OCC(=O)O)c(Cl)c1Cl [EA, 2-[2,3-dichloro-4-(2-methylidenebutanoyl)phenoxy] acetic acid] | inhibits the growth | slightly increased | 10 µM | 30 µM | down regulated | 60 µM | 8 µM | 22 µM | expression of Wnt/β-catenin target genes [5]: decreased; binding to LEF-1 protein [7]: directly bind; IC50 ([10]; 72 h, 1x10^5 cells cultured three days, various concentrations): 33 µM; IC50 ([11]; 72 h, OCI-Ly8 LAM53, 1x10^5 cells cultured three days, various concentrations): 57 µM; IC50 ([12]; 72 h, SU-DHL 4, 1x10^5 cells cultured three days, various concentrations): 58 µM; IC50 ([13]; Homo sapiens, 72 h, PBMC from healthy individuals, three days): > 400 µM; viability at 72 h, 30 µM [14]: 89.5 ± 3.1%
2 | Cc1cc(C2CCCCC2)n(O)c(=O)c1 [CIC, ciclopirox olamine] | inhibits the growth | slightly decreased | 9 µM | 30 µM | down regulated | 6 µM | 6 µM | 5 µM | IC50 ([10]; after 72 h): 6 µM; IC50 ([11]; OCI-Ly8, LAM-53, after 72 h): 2 µM; IC50 ([12]; SU-DHL-4, after 72 h): 7 µM; IC50 ([13]; Homo sapiens, PBMC, after 72 h): > 400 µM; IC50 ([13]; PBMC from healthy individuals, three days): > 400 µM; effect on normal PBMC and PBL ([13]; normal PBMC and PBL, result in words): marginal
